The results in this text go back to patent US3947584A, “Novel indolyl alkyl amines, method of producing same, and their use as anorectic agents” (Siegfried Aktiengesellschaft, priority 1972, dated 1976).

One series in a line: Solubility. The following applies: in usual alcohols and in water; hydrochloride.
The next series deals with Mouse / Rat. Description: Therapeutic index (LD 50 mouse, oral / ED 50 rat, oral). It counts as in vivo. The source says:
(§1) The first column gives the respective two alkyl groups which are fixed in the α-position to the otherwise unsubstituted tryptamines.

Series [1] is described as follows: Toxicity, single oral application in mouse (LD 50). The following applies: in vivo, dissolved in equivalent quantities of HCl.
Source text: as §1

The next series has as its system Rat. Description: Anorexia, single oral application in rat (ED 50). The class given is in vivo. The following applies: dissolved in equivalent quantities of HCl.
Source text: as §1

Broadly, the LD50 is the dose expected to kill half of the subjects tested. As a reminder, the ED50 is the dose at which the effect has come halfway, by size or by number of responders.

Consider `CCC(C)(N)Cc1c[nH]c2ccccc12` (stereo not shown) [Example 3, 3-(2'-amino-2'-methylbutyl)-indole], for which, in “Solubility”, the solubility result is “soluble very satisfactorily in usual alcohols and in water”.
As to `CCC(N)(CC)Cc1c[nH]c2ccccc12` [Ethyl, ethyl, 3-(2'-ethyl-2'-aminobutyl)-indole], the “Therapeutic Index (LD 50 / ED 50)” value in the series on Mouse / Rat was under 12. Besides, the LD50 in series [1] came out at 620 mg/kg. For the same compound, the ED50 with Rat is over 50 mg/kg.
In the case of `CC(C)(N)Cc1c[nH]c2ccccc12` [Methyl, methyl, α,α-dimethyl tryptamine, reference compound], the “Therapeutic Index (LD 50 / ED 50)” value in the series with Mouse / Rat turned out to be 9. For the same compound, in series [1], the median lethal dose (LD50) worked out at 320 mg/kg. In the series with Rat, the 50% effective dose (ED50) amounted to 36 mg/kg.
As for `CCCC(C)(N)Cc1c[nH]c2ccccc12` (stereo not shown) [Methyl, propyl, 3-(2'-methyl-2'-aminopentyl)-indole], in the series with Mouse / Rat, the “Therapeutic Index (LD 50 / ED 50)” value was “approx. 11”. For the same compound, the median lethal dose (LD50) in series [1] came out at 530 mg/kg. In addition, in the series with Rat, the ED50 is about 50 mg/kg.
Regarding `CCCC(N)(CCC)Cc1c[nH]c2ccccc12` [Propyl, propyl, 3-(2'-propyl-2'-aminopentyl)-indole], the “Therapeutic Index (LD 50 / ED 50)” value in the series with Mouse / Rat was under 18. Further, the 50% lethal dose (LD50) in series [1] was determined as 900 mg/kg. For the same compound, the ED50 with Rat was over 50 mg/kg.
For `CCC(C)(N)Cc1c[nH]c2ccccc12` (stereo not shown) [Methyl, ethyl, 3-(2'-amino-2'-methylbutyl)-indole] the same measures were 47, 700 mg/kg and 15 mg/kg.
